Consider ten compounds from ChEMBL document CHEMBL1201862, “PubChem BioAssay data set” (2004).

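Following 48 hours of exposure in 96-well plates, responses at five concentrations were used to interpolate endpoints linearly. Here, GI50 denotes the concentration required for 50% inhibition of growth.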 Activity calls are given as the source filed them. No stated cut-off is given here; in the data, active = GI50 up to about 1.1 µM and inactive = higher.

Some test systems named below: 786-0; A498; A549; BT-549; CCRF-CEM; EKVX; HCT-116; HT-29; LOX IMVI; MDA-N; NCI/ADR-RES; OVCAR-3; OVCAR-8; RXF 393; SF-268; SK-OV-3; SN12C; SNB-19; SR; TK-10.
Holding throughout (experiment): inhibition of tumour cell growth, NCI panel, 48 h

Turning to `O=S(=O)(O)c1c(Cl)c(Cl)c(O)c2ncccc12`, the GI50 in the assay on 786-0 is 8.02 µM (inactive); in the assay with A498, 1 µM (active); with A549, 12.4 µM (inactive); with BT-549, 20.2 µM (inactive); in the assay on CCRF-CEM, 4.01 µM (inactive); in the assay with EKVX it was 12.2 µM (inactive). For the same compound, the GI50 was 5.56 µM (inactive) with HCT-116; 9.89 µM (inactive) with HT-29; 2.19 µM (inactive) with LOX IMVI; 14.6 µM (inactive) in the assay on MDA-N; 5.05 µM (inactive) with NCI/ADR-RES; 10.7 µM (inactive) in the assay with OVCAR-3. Moreover, the GI50 in the assay with OVCAR-8 is 10.3 µM (inactive); in the assay with RXF 393, 19.3 µM (inactive); in the assay on SF-268 it was 3.79 µM (inactive); with SK-OV-3, 13 µM (inactive); with SN12C, 14 µM (inactive); with SNB-19 it was 11.8 µM (inactive). In addition, the GI50 in the assay with SR is 6.3 µM (inactive); with TK-10, 12.5 µM (inactive).
For `Cc1csc2c(=O)n(COCc3ccccc3)c(=O)[nH]c12`, the GI50 with 786-0 is > 100 µM (inactive); in the assay with A498, > 100 µM (inactive); in the assay with A549 it was > 100 µM (inactive); in the assay on BT-549 it was > 100 µM (inactive); in the assay with CCRF-CEM, > 100 µM (inactive); in the assay on EKVX it was 66.2 µM (inactive). Further, the GI50 with HCT-116, in the assay with HT-29, in the assay with LOX IMVI, in the assay on MDA-N, with NCI/ADR-RES and in the assay on OVCAR-3 was > 100 µM (inactive) throughout. The GI50 in the assay with OVCAR-8, in the assay on RXF 393, in the assay with SF-268, with SN12C, in the assay on SNB-19 and in the assay on SR was > 100 µM (inactive) in each case. Besides, the GI50 in the assay on TK-10 was > 100 µM (inactive).
In the case of `CC(C)CCNC(=O)c1ccc(CNC(=O)/C=C/c2ccc3c(c2)-c2ccccc2C3)cc1`, the GI50 is 33.9 µM (inactive) in the assay on 786-0; > 100 µM (inactive) with A498; 41.5 µM (inactive) in the assay with A549; 87.3 µM (inactive) in the assay with BT-549; 38.8 µM (inactive) with CCRF-CEM; > 100 µM (inactive) with EKVX. Also, the GI50 in the assay with HCT-116 was 59.8 µM (inactive); in the assay on HT-29 it was 41.5 µM (inactive); with LOX IMVI, 50.6 µM (inactive); in the assay with MDA-N it was 62.8 µM (inactive); in the assay with NCI/ADR-RES it was 34.2 µM (inactive); in the assay on OVCAR-3, 23.4 µM (inactive). Moreover, the GI50 was 27.7 µM (inactive) in the assay on OVCAR-8; 39.1 µM (inactive) in the assay on RXF 393; 38.7 µM (inactive) in the assay with SF-268; 57.1 µM (inactive) in the assay with SK-OV-3; > 100 µM (inactive) with SN12C; > 100 µM (inactive) in the assay with SNB-19. The figures for the GI50 in the assay on SR and in the assay on TK-10 were 34.9 µM (inactive) and 40 µM (inactive), respectively.
With `CCOC(=O)c1sc2nc(SC)nc3c2c1NCN3c1ccc2c(c1)OCCCO2`, the GI50 is 6.31 µM (inactive) with 786-0; 7.98 µM (inactive) in the assay on A498; 9.48 µM (inactive) in the assay on A549; 51.2 µM (inactive) with BT-549; > 100 µM (inactive) in the assay on CCRF-CEM; > 100 µM (inactive) in the assay on EKVX. In addition, the GI50 in the assay with HCT-116 was 5.02 µM (inactive); in the assay with LOX IMVI, > 100 µM (inactive); in the assay with MDA-N it was > 100 µM (inactive); in the assay on NCI/ADR-RES it was 22.1 µM (inactive); with OVCAR-3, 18.6 µM (inactive); in the assay on OVCAR-8, 7.46 µM (inactive). The GI50 with RXF 393 was 11.7 µM (inactive); in the assay with SF-268 it was 13.3 µM (inactive); in the assay on SK-OV-3, 15.7 µM (inactive); in the assay on SN12C, 49.7 µM (inactive); in the assay on SNB-19, 8.09 µM (inactive); in the assay with SR, > 100 µM (inactive). In the assay on TK-10, the GI50 is 53.6 µM (inactive).
With `COc1ccc2c(c1)c1ccc3c(c1n2C)C(=O)C=CC3=O`, the GI50 is 6.78 µM (inactive) with 786-0; 25.4 µM (inactive) with A498; 29 µM (inactive) in the assay on A549; 3.77 µM (inactive) in the assay on BT-549; 0.455 µM (active) in the assay on CCRF-CEM; 14.1 µM (inactive) in the assay on EKVX. Further, the GI50 was 5.42 µM (inactive) with HCT-116; 14 µM (inactive) with HT-29; 8.83 µM (inactive) in the assay on LOX IMVI; 8.91 µM (inactive) with MDA-N; 5.79 µM (inactive) with NCI/ADR-RES; 8.39 µM (inactive) in the assay with OVCAR-3. For the same compound, the GI50 was 11.4 µM (inactive) with OVCAR-8; 5.35 µM (inactive) in the assay on RXF 393; 15 µM (inactive) with SF-268; 29.2 µM (inactive) in the assay with SK-OV-3; 8.38 µM (inactive) in the assay with SN12C; 26 µM (inactive) in the assay on SNB-19. For the same compound, the GI50 in the assay on SR was 0.813 µM (active); in the assay on TK-10, 7.76 µM (inactive).
`CC12OC1(C)C1C(=O)OCC1C2=O` (stereo not given): the GI50 in the assay on 786-0 is 70 µM (inactive); in the assay on A498, > 100 µM (inactive); in the assay with A549 it was > 100 µM (inactive); in the assay with BT-549, > 100 µM (inactive); with CCRF-CEM, 17.5 µM (inactive); in the assay with HCT-116 it was 66.4 µM (inactive). Moreover, the GI50 in the assay on HT-29 is 49.7 µM (inactive); in the assay on LOX IMVI, > 100 µM (inactive); in the assay with MDA-N, > 100 µM (inactive); in the assay with NCI/ADR-RES it was 51.3 µM (inactive); with OVCAR-3, 38.9 µM (inactive); in the assay on OVCAR-8, 49.9 µM (inactive). Moreover, the GI50 in the assay on RXF 393 was 31.8 µM (inactive); with SF-268 it was 37.8 µM (inactive); with SK-OV-3 it was > 100 µM (inactive); in the assay with SN12C, 26.7 µM (inactive); in the assay on SNB-19, 61.1 µM (inactive); in the assay with SR it was 21 µM (inactive). Moreover, the GI50 with TK-10 was > 100 µM (inactive).
Turning to `O=C(Nc1cccc(F)c1)c1cc2ccc(O)cc2o/c1=N\c1ccccc1F`, the GI50 in the assay with 786-0 was 4.99 µM (inactive); in the assay on A498, 16.1 µM (inactive); in the assay with A549, 3.38 µM (inactive); in the assay on BT-549, 2.13 µM (inactive); in the assay with CCRF-CEM it was 2.47 µM (inactive); in the assay with EKVX, 2.18 µM (inactive). The GI50 is 4.03 µM (inactive) with HCT-116; 21.2 µM (inactive) in the assay with HT-29; 2.96 µM (inactive) in the assay with LOX IMVI; 4.82 µM (inactive) with MDA-N; 2.9 µM (inactive) with NCI/ADR-RES; 3.81 µM (inactive) in the assay with OVCAR-3. The GI50 in the assay with OVCAR-8 was 2.51 µM (inactive); with SF-268, 2.74 µM (inactive); in the assay with SK-OV-3 it was 5.36 µM (inactive); with SN12C it was 5.26 µM (inactive); with SNB-19 it was 5.31 µM (inactive); in the assay on SR, 2.47 µM (inactive).
With `COc1cc(/C=C/C2=NN(c3cccc(S(=O)(=O)O)c3)C3(C2)C(Cl)C(=O)N3c2nc3ccccc3s2)ccc1O` (stereo not given), the GI50 with 786-0 is 17.4 µM (inactive); with A498, 55.6 µM (inactive); in the assay on A549 it was 31 µM (inactive); with BT-549, 14.7 µM (inactive); in the assay on CCRF-CEM it was 17.7 µM (inactive); in the assay with EKVX, 20.3 µM (inactive). Further, the GI50 was 19.5 µM (inactive) in the assay with HCT-116; 20.7 µM (inactive) in the assay on HT-29; 11.4 µM (inactive) with LOX IMVI; 25.2 µM (inactive) with MDA-N; 27.4 µM (inactive) in the assay on NCI/ADR-RES; 18.3 µM (inactive) in the assay with OVCAR-8. The GI50 is 29.2 µM (inactive) with RXF 393; 23.8 µM (inactive) with SF-268; 21.9 µM (inactive) in the assay on SN12C; 65.9 µM (inactive) with SNB-19; 15.6 µM (inactive) in the assay on SR; 14.8 µM (inactive) with TK-10.
Consider `C(/C=N/N=C1NCCN1)=N\N=C1NCCN1`, for which the GI50 in the assay with 786-0, with A498, with A549, in the assay with BT-549, with CCRF-CEM and in the assay on EKVX was > 100 µM (inactive) each time. The GI50 in the assay on HCT-116, in the assay with HT-29, in the assay on LOX IMVI, in the assay with MDA-N, with NCI/ADR-RES and with OVCAR-3 was > 100 µM (inactive) each time. Besides, the GI50 in the assay with OVCAR-8, with RXF 393, in the assay with SF-268, with SK-OV-3, in the assay on SNB-19 and in the assay with SR was > 100 µM (inactive) each time.
Regarding `CCOC(=O)CC1(N)CC2c3ccccc3OC(=O)C2C(=O)N1` (stereo not given), the GI50 in the assay with 786-0, in the assay on A498, in the assay with A549, with BT-549, in the assay on CCRF-CEM and in the assay on EKVX was > 100 µM (inactive) each time. The GI50 in the assay on HCT-116, in the assay on HT-29, in the assay with LOX IMVI, with MDA-N, with NCI/ADR-RES and in the assay on OVCAR-3 was > 100 µM (inactive) throughout. Moreover, the GI50 in the assay with OVCAR-8, in the assay with RXF 393, with SF-268, with SN12C, in the assay on SNB-19 and in the assay with SR was > 100 µM (inactive) each time. For the same compound, the GI50 with TK-10 was > 100 µM (inactive).
